Data set [1] concerns A875 (human melanoma). Put plainly: In vitro cytotoxicity MTT assay, A875 cells. Conditions: for IC50 / inhibition at 40 µg/mL: Homo sapiens; for inhibition at 40 µg/mL: A875, read-out: in vitro inhibition rate on A875. On the technique in general: Tetrazolium assays rely on reduction of a dye to a coloured formazan, in cell work by metabolically active cells.
Description: (§1) The in vitro cytotoxicity of these carbazole derivatives against human melanoma (A875), human gastric adenocarcinoma cells (7901), and a subclone of African green monkey kidney cell line MA-104 (MARC145) cell lines was evaluated using the MTT assay. Briefly, A875, 7901, and MARC145 cells were seeded at 2 × 10^4 cells per well in 96-well plates and grown to subconfluence. After removal of the growth medium, six serial dilutions of each tested compound in 200 µL test medium were added. Plates were incubated at 37°C in a humidified atmosphere containing 5% CO2. After 72 h of exposure, the culture medium was removed and 30 µL of the MTT solution (5 mg/mL in PBS) was added to each well. The plate was further incubated for 4 h to allow MTT formazan formation. To dissolve the resulting MTT formazan, 50 µL of DMSO was added to each well, followed by thorough mixing with a microplate shaker. Absorbance at 570 nm was measured on a microplate reader (Thermo Scientific, MK3). All data were analyzed with SPSS software, and the 50% inhibitory concentrations (IC50) of each compound for the different cell lines were determined. All assays were performed in triplicate on three independent experiments.
Data set [2] in a line: In vitro cytotoxicity MTT assay, MARC145 cells. Conditions: African green monkey, MARC145 cells (subclone of kidney cell line MA-104).
Description: as §1
Data set [3] deals with 7901, A875 and MARC145 cell lines. Briefly: In vitro cytotoxicity MTT assay, overall rating over the tested cell lines. It is filed as cell-based. The protocol:
The relationship between concentration and inhibition rate is the key to whether a potential compound can be use as potential medicinal agents. It is very important to maintain good activity at low concentration. Based on the preliminary screening data, in order to verify the effect of concentration on the potential cytotoxic activities for all compounds, the inhibition activity data of the compounds at different concentrations were detected using the same method. All experiments were carried out on three kinds of cell lines with six concentrations of 40, 20, 10, 5, 1, and 0.5 μg/mL. The inhibition activities for highly potential compounds 7b, 11a, 11b, 14a, and 14b were described in Figure 4.

The test system of data set [4] is 7901 (human gastric adenocarcinoma cells). Put plainly: In vitro cytotoxicity MTT assay, 7901 cells. Conditions: for IC50 / inhibition at 40 µg/mL: Homo sapiens; for inhibition at 40 µg/mL: read-out: in vitro inhibition rate on 7901.
Description: as §1
For data set [5], the system named is MARC145 (a subclone of African green monkey kidney cell line MA-104). Briefly: In vitro cytotoxicity MTT assay, MARC145 cells. Conditions: preliminary screening, 40 μg/mL.
Description: as §1
Data set [6] deals with A875 (human melanoma). More on the design: method as in Huang et al., 2021. Conditions: previous work; ref Huang et al., 2021; read-out: IC50 against A875; cited from earlier work.
The test system of data set [7] is MARC145 (a subclone of African green monkey kidney cell line MA-104). Further details: method as in Huang et al., 2021. Conditions: previous work; ref Huang et al., 2021; cited from earlier work.
Data set [8] has as its system 7901 (human gastric adenocarcinoma cells).
Description: as §1
Data set [9] concerns A875 (human melanoma).
Description: as §1
The subject of data set [10] is MARC145 (a subclone of African green monkey kidney cell line MA-104).
Description: as §1
Where [11] appears, read: A875, 72 h, read-out: In vitro cytotoxicity IC50, A875.
Where [12] appears, read: 72 h, read-out: In vitro cytotoxicity IC50, 7901.
Where [13] appears, read: A875, read-out: A875 IC50 (Figure 5).

We go through 19 compounds from paper PMC9890180, “Structural diversity-guided optimization of carbazole derivatives as potential cytotoxic agents” (Frontiers in Chemistry, 2023).

Like-named read-outs stand apart in the source and are kept apart here. Some results are limits rather than exact numbers.

What is called melting point is the temperature, or range, at which the solid turns liquid. Usually IC50 stands for the concentration that gives 50% inhibition. For `Cc1ccc(NNC(=O)C(C)c2ccc3c(c2)[nH]c2ccc(Cl)cc23)cc1` (stereo not drawn) [Compound 11c, 2-(6-Chloro-9H-carbazol-2-yl)-N'-(p-tolyl)propanehydrazide], the melting point was determined as 188 °C. Further, in data set [1] (setting [11]), the concentration for half-maximal inhibition (IC50) was more than 40 µM. In addition, the IC50 at 72 h in data set [2] was determined as 64 ± 20.1 µM.
With `CC(C(=O)NN=Cc1c[nH]c2ccccc12)c1ccc2c(c1)[nH]c1ccc(Cl)cc12` (stereo not drawn) [Compound 14d, N'-((1H-Indol-3-yl)methylene)-2-(6-chloro-9H-carbazol-2-yl)propanehydrazide], the melting point was determined as 209 °C. Further, the half-maximal inhibitory concentration (IC50) in data set [1] (setting [11]) is 37.6 ± 8.15 µM. The IC50 at 72 h in [2] worked out at 42.4 ± 4.58 µM.
As to `Cc1ccc(S(=O)(=O)N(NC(=O)c2ccc3c([nH]c4ccccc43)c2C)C(C)(C)C)cc1` [Compound 7d, N-(tert-Butyl)-4-methyl-N'-(1-methyl-9H-carbazole-2-carbonyl)benzenesulfonohydrazide], the melting point stood at 97 °C. In addition, in data set [3], the “Inhibitory activity on tested cells, in words” value (shortened to “Inhibitory activity”) is given as “decreases significantly”. In [4] (setting [12]), the IC50 was determined as 34.5 ± 9.9 µM. In addition, the IC50 in [1] (setting [11]) was more than 40 µM. Also, the IC50 at 72 h in data set [2] is 18.7 ± 4.16 µM.
One may read the inhibition as the percentage by which the read-out fell short of the control. On to `COc1cccc(C=NNC(=O)C(C)c2ccc3c(c2)[nH]c2ccc(Cl)cc23)c1O` (stereo not drawn) [Compound 14a, 2-(6-Chloro-9H-carbazol-2-yl)-N'-(2-hydroxy-3-methoxybenzylidene)propanehydrazide], for which the melting point turned out to be 217 °C. Also, the “Inhibitory activity” value in data set [3] is “good inhibition activities on all tested cells”. In addition, in data set [3] (concentration of 5 μg/mL), the “Inhibition activity at low concentration, in words” value is listed as “good activity”. Moreover, in [4] (setting [12]), the IC50 turned out to be 11.8 ± 1.26 µM. Moreover, the inhibition at 40 µg/mL in [4] is more than 70%. The IC50 in [1] (setting [11]) came out at 9.77 ± 8.32 µM. Further, the concentration for half-maximal inhibition (IC50) in [1] (setting [13]) stood at 9.77 ± 8.33 µM. In addition, the inhibition at 40 µg/mL in [1] is more than 70%. In data set [2], this compound had a 50% inhibitory concentration (IC50) at 72 h of 7.47 ± 4.15 µM. Besides, the “Toxicity to normal cells MARC-145 compared with cancer cells, in words” value (from here on “Toxicity … compared with cancer cells, in words”) in [5] is recorded as “less toxicity to normal cells MARC-145 than cancer cells”.
`CC(C(=O)NN=Cc1ccc2c(c1)OCO2)c1ccc2c(c1)[nH]c1ccc(Cl)cc12` (stereo not drawn) [Compound 14c, N'-(Benzo[d][1,3]dioxol-5-ylmethylene)-2-(6-chloro-9H-carbazol-2-yl)propanehydrazide] had a melting point of 240 °C. Moreover, in data set [1] (setting [11]), the IC50 was more than 40 µM. Besides, the IC50 at 72 h in data set [2] is more than 40 µM.
With `O=c1[nH]cc(F)c(=O)[nH]1` [Compound 5-FU, 5-fluorouracil, reference compound], the 50% inhibitory concentration (IC50) was found to be 63.5 ± 4.92 µM in data set [4] (setting [12]) and 80.1 ± 6.61 µM in data set [1] (setting [11]). In addition, the midpoint of inhibition in [2], the IC50 at 72 h, lay at 86.3 ± 8.3 µM.
`Cc1c(C(=O)NCC(=O)c2ccccc2)ccc2c1[nH]c1ccccc12` [Compound 7e, 1-Methyl-N-(2-oxo-2-phenylethyl)-9H-carbazole-2-carboxamide]: the melting point is 153 °C. For the same compound, the IC50 in data set [1] (setting [11]) is more than 40 µM. For the same compound, in data set [2], the IC50 at 72 h came out at 62.6 ± 28.2 µM.
Consider `Cc1c(C(=O)Nc2ccc(S(=O)(=O)Nc3ccccc3Oc3ccccc3)cc2)ccc2c1[nH]c1ccccc12` [Compound 7a, 1-Methyl-N-(4-(N-(2-phenoxyphenyl)sulfamoyl)phenyl)-9H-carbazole-2-carboxamide], for which the melting point is 78 °C. Also, in data set [4] (setting [12]), the half-inhibitory concentration (IC50) was 64.7 ± 15.1 µM. Besides, the IC50 in data set [1] (setting [11]) is 33.5 ± 1.63 µM. The compound further returned an IC50 at 72 h in [2] of 51.5 ± 9.24 µM.
For the compound `CC(C(=O)Nc1ccc(S(=O)(=O)Nc2ncccn2)cc1)c1ccc2c(c1)[nH]c1ccc(Cl)cc12` (stereo not drawn) [Compound 11e, 2-(6-Chloro-9H-carbazol-2-yl)-N-(4-(N-(pyrimidin-2-yl)sulfamoyl)phenyl)propanamide], the melting point came out at 157 °C. In data set [1] (setting [11]), the IC50 was more than 40 µM. In addition, the IC50 at 72 h in data set [2] is more than 40 µM.
With `CC(C(=O)NN=Cc1ccc(Cl)cc1)c1ccc2c(c1)[nH]c1ccc(Cl)cc12` (stereo not drawn) [Compound 14f, 2-(6-Chloro-9H-carbazol-2-yl)-N'-(4-chlorobenzylidene)propanehydrazide], the melting point worked out at 218 °C. Further, in data set [4] (read-out: 7901 IC50 (Figure 5)), the IC50 was more than 100 µM. Besides, the IC50 in [1] (setting [11]) was more than 40 µM. The half-inhibitory concentration (IC50) in [1] (setting [13]) is more than 100 µM. This compound also gave an IC50 at 72 h in [2] of more than 40 µM.
With `Cc1c(C(=O)Nc2ccc(S(=O)(=O)Nc3ccc(Cl)nc3)cc2)ccc2c1[nH]c1ccccc12` [Compound 7b, N-(4-(N-(6-Chloropyridin-3-yl)sulfamoyl)phenyl)-1-methyl-9H-carbazole-2-carboxamide], the melting point worked out at 93 °C. Further, the “Inhibitory activity” value in data set [3] is “moderate inhibitory activity”. The IC50 in data set [4] (setting [12]) is 58.1 ± 11.3 µM. For the same compound, the inhibition at 40 µg/mL in data set [4] is more than 70%. The IC50 in data set [1] (setting [11]) came out at 23 ± 16.9 µM. For the same compound, the inhibition at 40 µg/mL in [1] is more than 70%. Half-maximal inhibition in data set [2] (IC50 at 72 h) required 58.9 ± 16.7 µM. Besides, the “Toxicity … compared with cancer cells, in words” value in [5] was “less toxicity to normal cells MARC-145 than cancer cells”.
With `CC(C(=O)NN=Cc1ccc(Cl)cc1Cl)c1ccc2c(c1)[nH]c1ccc(Cl)cc12` (stereo not drawn) [Compound 14g, 2-(6-Chloro-9H-carbazol-2-yl)-N'-(2,4-dichlorobenzylidene)propanehydrazide], the melting point came out at 241 °C. Also, the IC50 in data set [4] (setting [12]) worked out at 38.8 ± 2.74 µM. The IC50 in [1] (setting [11]) is more than 40 µM. In data set [2], this compound had a half-inhibitory concentration (IC50) at 72 h of 96.3 ± 63.3 µM.
In the case of `COc1cc(C=NNC(=O)C(C)c2ccc3c(c2)[nH]c2ccc(Cl)cc23)ccc1O` (stereo not drawn) [Compound 14e, 2-(6-Chloro-9H-carbazol-2-yl)-N'-(4-hydroxy-3-methoxybenzylidene)propanehydrazide], the melting point amounted to 239 °C. For the same compound, the “Inhibitory activity” value in data set [3] is listed as “almost lost its activity”. Besides, the half-inhibitory concentration (IC50) in [4] (read-out: 7901 IC50 (Figure 5)) was more than 100 µM. The IC50 in data set [1] (setting [11]) was more than 40 µM. The half-inhibitory concentration (IC50) in data set [1] (setting [13]) was more than 100 µM. The compound further registered an IC50 at 72 h in data set [2] of more than 40 µM.
`Cc1c(C(=O)NN(C(=O)c2ccccc2)C(C)(C)C)ccc2c1[nH]c1ccccc12` [Compound 7c, N'-Benzoyl-N'-(tert-butyl)-1-methyl-9H-carbazole-2-carbohydrazide] had a melting point of 212 °C. For the same compound, in data set [1] (setting [11]), the IC50 was more than 40 µM. Also, half-maximal inhibition in data set [2] (IC50 at 72 h) was put at 58.4 ± 31.6 µM.
For `COc1cccc(/C=N/NC(=O)c2ccc3c([nH]c4ccccc43)c2C)c1O` [Compound 2021-7e], the figures for the IC50 in [6] and in data set [7] were 4.15 µM and 26.6 µM, respectively.
In turn, `CC(C(=O)NN=CC=Cc1ccc(Cl)cc1)c1ccc2c(c1)[nH]c1ccc(Cl)cc12` (stereo not drawn) [Compound 14b, 2-(6-Chloro-9H-carbazol-2-yl)-N'-(3-(4-chlorophenyl)allylidene)propanehydrazide] registered a melting point of 186 °C. The “Inhibitory activity” value in [3] is “good inhibition activities on all tested cells”. Besides, the IC50 in data set [4] (setting [12]) amounted to 18.9 ± 2.64 µM. The inhibition at 40 µg/mL in [4] was more than 70%. Besides, the half-inhibitory concentration (IC50) in data set [1] (setting [11]) is 45.6 ± 30.6 µM. Also, the inhibition at 40 µg/mL in data set [1] was more than 70%. This compound had an IC50 at 72 h in data set [2] of 19.6 ± 6.94 µM.
`CC(C(=O)Nc1ccccc1NS(C)(=O)=O)c1ccc2c(c1)[nH]c1ccc(Cl)cc12` (stereo not drawn) [Compound 11a, 2-(6-Chloro-9H-carbazol-2-yl)-N-(2-(methylsulfonamido)phenyl)propanamide]: the melting point was found to be 163 °C. Moreover, in data set [3], the “Inhibitory activity” value was “good inhibition activities on all tested cells”. The half-maximal inhibitory concentration (IC50) in data set [4] (setting [12]) was 21.9 ± 3.05 µM. For the same compound, the inhibition at 40 µg/mL in [4] is more than 70%. Also, the half-inhibitory concentration (IC50) in data set [1] (setting [11]) came out at 36.7 ± 2.96 µM. Besides, the inhibition at 40 µg/mL in [1] is more than 70%. This compound showed an IC50 at 72 h in data set [2] of 22.9 ± 14.3 µM. Also, in data set [5], the “Toxicity … compared with cancer cells, in words” value is recorded as “less toxicity to normal cells MARC-145 than cancer cells”.
`CC(C(=O)NCCS(C)(=O)=O)c1ccc2c(c1)[nH]c1ccc(Cl)cc12` (stereo not drawn) [Compound 11d, 2-(6-Chloro-9H-carbazol-2-yl)-N-(2-(methylsulfonyl)ethyl)propanamide] returned a melting point of 149 °C. The “Inhibitory activity” value in data set [3] was “lost activity”. In data set [1] (setting [11]), the half-inhibitory concentration (IC50) was more than 40 µM. In data set [2], this compound registered an IC50 at 72 h of more than 40 µM.
In the case of “2-(6-Chloro-9H-carbazol-2-yl)-N-(2-((dimethylphosphoryl)amino)phenyl)propanamide [Compound 11b]”, in data set [3], the “Inhibitory activity” value was “good inhibition activities on all tested cells”. Further, the IC50 in data set [8] worked out at 20.6 ± 3.3 µM; in data set [9], 33.6 ± 9.48 µM; in data set [10], 17.3 ± 7.25 µM. For the same compound, in data set [4] (concentration of 40 μg/mL), the “in vitro inhibition rate on 7901” value is on record as more than 70%. Moreover, the “in vitro inhibition rate on A875” value in [1] (concentration of 40 μg/mL) is on record as more than 70%.
